For assay [1], the system named is E. faecalis. Kind of assay: Antibiotic susceptibility evaluation through FISH analysis (ratio of test microorganisms after about 1 hour culturing). The format is cell-based. The following applies: first microbial group treated and cultured with antibiotics. Here is the method: (§1) In this example, a total of two experiments were conducted on each of E. coli K-12 bacteria as test microorganisms having antibiotic susceptibility, and E. coli ER7 bacteria as test microorganisms having antibiotic resistance, and each group was set to include E. faecalis bacteria having resistance to Cefotaxime.
(§2) The number or ratio of initial microorganisms in the first microbial group, the second microbial group, and the third microbial group was set identically.
(§3) In an embodiment, E. coli K-12 bacteria, antibiotic-resistant E. coli ER7 bacteria, and E. faecalis resistant to cefotaxime were used, and each strain was cultured up to OD 600=0.5 to obtain a sample containing the test microorganisms. On the other hand, after treating the sample with antibiotics, the amount of the test microorganisms was quantified by imaging at OD 600. In this case, the imaging process was performed by centrifugation at 3,000 g for 3 min, concentrating the sample 10-fold and fixing the same on a glass substrate coated with Vectabond.
(§4) To fix bacterial samples, a 50:1 solution of acetone and Vectabond was dropped onto a sample dish. Next, the sample dish was incubated at room temperature for 5 minutes, and washed 2 to 3 times with tertiary water, and then the water was completely removed therefrom. Thereafter, the test microorganisms samples of Example 6 were dropped on the coated sample dish, and incubated at room temperature for 30 minutes, and the remaining sample was washed three times. Next, a 3.7% formaldehyde solution was dropped on the sample dish on which the sample was fixed, and then the fixation was performed for 30 minutes at room temperature. Afterwards, it was washed 2 to 3 times with nuclease-free tertiary water. […] Finally, after immersing the sample in a 2×SSC solution diluted with nuclease-free tertiary […], a fluorescence image of the sample was acquired using a confocal fluorescence microscope.

In assay [2] the test system is E. coli K-12. The assay is described as above. The format is cell-based. Here is the method:
as §1, §2, §3, §4

From patent US12655472B2, “Microbe detection method using fish analysis” (priority 2020, dated 2026) come the findings set out here.

Consider `CO/N=C(\C(=O)N[C@@H]1C(=O)N2C(C(=O)O)=C(COC(C)=O)CS[C@H]12)c1csc(N)n1` [cefotaxime], for which the “growth of E. faecalis” value in assay [1] is on record as “continued to grow”. Also, the “number of population of E. coli K-12” value in assay [2] (first microbial group treated and cultured with antibiotics, about 1 hour) was “rapidly reduced”. In addition, the “ratio of E. coli and E. faecalis” value in assay [2] (first microbial group, mixed E. coli and E. faecalis sample treated with antibiotic and cultured for 1 hour) is “ratio of E. coli and E. faecalis changed”.
